Patent US20120195911A1, “Method of treatment of cancer patients” (priority 2011, published 2012)

Columns and labels:
[1] = tested on: neuroblastoma cells infected by HCMV; conditions: long-term cultured HCMV-infected neuroblastoma cells resistant to cysplatin and etoposide; virus reproduction blocked; cited from earlier work
[2] = tested on: adenocarcinomas with various localizations; assay: Comparative study, all cancer patients of the experimental group together; assay type: in vivo, human; conditions: for long-term remission of the illness: fewer than 3 courses of seven days
Description: All the patients belonged to the second clinical group with stage 3 illness. In the capacity of a control group (Control), the following were used: 10 cervical cancer patients, 12 stomach cancer patients, and 10 mammary gland cancer patients from clinical group 2 with stage 3 illnesses. In the control group the patients were treated without the use of Valacyclovir and Acyclovir. As may be seen in the table, the remission periods due to the use of Valacyclovir (Acyclovir) before standard methods of treatment or in combination with chemotherapy doubled for mammary gland cancer and quintupled for stomach cancer. In the majority of the patients (more than 72%), metastasis was not seen for the entire period of observation (3 years). […] The use of the antiviral drug is not useful for a longer period, as the remission period begins for the patient and the drug is ineffective.

T3N1M0 stomach cancer = assay: Case reports: preoperative Valacyclovir in stomach cancer; assay type: in vivo, human; conditions: then subtotal resection
Description: (§1) […] CMV antigens were found using the FAM in 90% of the lymphocytes before treatment with Valacyclovir. The patient then underwent Valacyclovir therapy. 2 g of medication was administered 4 times a day for 7 days in a row in three courses in intervals of seven days each. Then a subtotal resection was performed on the patient's stomach. Postoperative chemotherapy was not used. […] Laboratory study of the patient's lymphocytes every year found CMV antigens in 10-15% of the cells. At the end of the first and second year, the patient received another course of Valacyclovir.
EBV antigens were found 80% of the lymphocytes and CMV was found in 90% of the lymphocytes using the FAM in before treatment with Valacyclovir. The patient then underwent combination therapy with antiviral drugs: immunoglobulin to treat the EBV at a dosage of 13 ml of a 10% solution immediately (7 ml per injection) intravenously once a week three times; immunoglobulin to treat the CMV at a dosage of 13 ml of a 10% solution immediately (7 ml per injection) intramuscularly once a week three times; two 1 g tablets of Valacyclovir 3 times per day in 3 courses of 7 days each; Laferobion 3 million IU once per day daily for seven days in a row. Then a subtotal resection was performed on the patient's stomach. Postoperative chemotherapy was not used. […]

T4N1M0 cervical cancer = assay: Case report: Valacyclovir before radiation therapy for cervical cancer; assay type: in vivo, human; conditions: Patient S.
Description: (§2) […] CMV was found with the FEM in 80% of lymphocytes before treatment with Valacyclovir. The patient then underwent Valacyclovir therapy. 2 g of medication was administered 4 times a day for 7 days in a row in three courses in intervals of seven days each. Then the patient underwent a standard schedule of radiological treatment. Chemotherapy was not used. […] Laboratory study of the patient's lymphocytes every year found CMV antigens, but only in 20-30% of the cells. The patient underwent two more courses of treatment with Valacyclovir according to the schedule above once per year.

EBV = EBV antigens in patient's lymphocytes (fluorescing antibody method); assay type: in vivo, human; conditions: Patient (stomach cancer), combination with immunoglobulins and Laferobion; 80% before treatment
Description: (§3) EBV antigens were found 80% of the lymphocytes and CMV was found in 90% of the lymphocytes using the FAM in before treatment with Valacyclovir. The patient then underwent combination therapy with antiviral drugs: immunoglobulin to treat the EBV at a dosage of 13 ml of a 10% solution immediately (7 ml per injection) intravenously once a week three times; immunoglobulin to treat the CMV at a dosage of 13 ml of a 10% solution immediately (7 ml per injection) intramuscularly once a week three times; two 1 g tablets of Valacyclovir 3 times per day in 3 courses of 7 days each; Laferobion 3 million IU once per day daily for seven days in a row. Then a subtotal resection was performed on the patient's stomach. Postoperative chemotherapy was not used. […] Laboratory study of the patient's lymphocytes every year found CMV and EBV antigens in 10-15% of the cells.

Stomach Cancer = assay: Comparative study of treatment with Valacyclovir before standard treatment, stomach cancer patients; assay type: in vivo, human; conditions: Valacyclovir (Acyclovir) before standard treatment or with chemotherapy
Description: (§4) All the patients belonged to the second clinical group with stage 3 illness. In the capacity of a control group (Control), the following were used: 10 cervical cancer patients, 12 stomach cancer patients, and 10 mammary gland cancer patients from clinical group 2 with stage 3 illnesses. In the control group the patients were treated without the use of Valacyclovir and Acyclovir. As may be seen in the table, the remission periods due to the use of Valacyclovir (Acyclovir) before standard methods of treatment or in combination with chemotherapy doubled for mammary gland cancer and quintupled for stomach cancer. In the majority of the patients (more than 72%), metastasis was not seen for the entire period of observation (3 years).

[3] = tested on: T2N1M0 mammary gland cancer; assay: Case report: preoperational Valacyclovir in mammary gland cancer; assay type: in vivo, human; conditions: Patient L., 1 g 3 times a day, 7 days, three courses, then radical mastectomy; three-year period
Description: (§5) […] Before treatment with Acyclovir, the antigen to cytomegalovirus (CMV) was found in 85% of the patient's lymphocytes through the fluorescing antibody method (FAM) and therapy was administered with the use of Valacyclovir. 1 g of medication was given 3 times a day for 7 days in a row in three courses in intervals of seven days each. Then the patient underwent a radical mastectomy. Postoperative chemotherapy was not used. […] CMV antigens were not found in the lymphocytes.

cytomegalovirus (CMV) = assay: CMV antigens in patient's lymphocytes (fluorescing antibody method / indirect immunofluorescence reaction); assay type: in vivo, human
Description: as §5, §1, §2
(§6) […] Valacyclovir was administered as treatment. CMV antigens were found in 95% of the patient's lymphocytes before treatment with Valacyclovir. 2 g of medication was administered orally 4 times a day for 7 days in a row in three courses in intervals of seven days each in parallel with CVPM chemotherapy. Other treatment methods were not used. […] Laboratory study of the patient's lymphocytes every year found CMV antigens in 10-15% of the cells. The patient underwent two more courses of treatment with Valacyclovir in combination with chemotherapy once per year.
as §3

Mammary Gland Cancer = assay: Comparative study of treatment with Valacyclovir before standard treatment, mammary gland cancer patients; assay type: in vivo, human; conditions: Valacyclovir (Acyclovir) before standard treatment or with chemotherapy
Description: as §4

T4N1M0 prostate cancer = assay: Case report: Valacyclovir with chemotherapy in prostate cancer; assay type: in vivo, human; conditions: Patient D., 2 g orally 4 times a day, 7 days, three courses, in parallel with CVPM chemotherapy; three-year period
Description: as §6

[4] = tested on: EBV-associated nasopharyngeal carcinomas; conditions: nasopharyngeal carcinomas in athymus mice; cited from earlier work

In the case of `Nc1nc(O)c2ncn(COC(CO)CO)c2n1` [Ganciclovir], the “sensitivity to the action of antitumor drugs” value [1] is given as “fully restored”.
With `CC(C)[C@H](N)C(=O)OCCOCn1cnc2c(=O)[nH]c(N)nc21` [Valacyclovir] the “patients in whom metastasis was not seen for the entire period of observation” value ([2]; experimental group, observation 3 years) was “more than 72%”, the “long-term remission of the illness” value ([2]; less than 1 g 3 times a day perorally) was “does not provide long-term remission” and the relapses (T3N1M0 stomach cancer; Patient B., 2 g 4 times a day, 7 days, three courses, three-year period) was “No relapses were seen”. For the same compound, the relapses (T3N1M0 stomach cancer; Patient, Valacyclovir combined with EBV and CMV immunoglobulins and Laferobion, four-year period) was “No relapses were seen”, the relapses (T4N1M0 cervical cancer; 2 g 4 times a day, 7 days, three courses, then radiological treatment, three-year period) was “No relapses were seen” and the metastasis (T4N1M0 cervical cancer; during the observation time) was “no metastasis”. For the same compound, the “EBV antigens in lymphocytes after treatment” value (EBV) was 10-15%, the “change of remission period versus control” value (Stomach Cancer) was “quintupled” and the relapses [3] was “No relapses were seen”. The “CMV antigens in lymphocytes after treatment” value (“CMV antigens in lymphocytes” below) (cytomegalovirus (CMV); Patient (stomach cancer), combination with immunoglobulins and Laferobion, 90% before treatment) was 10-15%, the “CMV antigens in lymphocytes” value (cytomegalovirus (CMV); Patient B. (stomach cancer), yearly study, 90% of lymphocytes before treatment) was 10-15% and the “CMV antigens in lymphocytes” value (cytomegalovirus (CMV); Patient D. (prostate cancer), yearly study, 95% of lymphocytes before treatment) was 10-15%. For the same compound, the “CMV antigens in lymphocytes” value (cytomegalovirus (CMV); Patient L., yearly checkup by IIR, 85% of lymphocytes before treatment) was “not found”, the “CMV antigens in lymphocytes” value (cytomegalovirus (CMV); Patient S. (cervical cancer), yearly study, 80% of lymphocytes before treatment) was 20-30% and the “change of remission period versus control” value (Mammary Gland Cancer) was “doubled”. The relapses (T4N1M0 prostate cancer) was “No relapses were seen”.
With `Nc1nc2c(ncn2COCCO)c(=O)[nH]1` [Acyclovir] the “long-term remission of the illness” value ([2]; less than 0.5 g 2 times a day in injected form) was “does not provide long-term remission”.
For `Nc1ccn(C[C@@H](CO)OCP(=O)(O)O)c(=O)n1` [Cidofovir, (S)-1-(3-hydroxy-2-phpsphonyl-methoxypropyl) cytosine], the “apoptosis in EBV-transformed epithelial cells” value [4] is given as “causes a quick induction of apoptosis”.
